In patent US10653688B2, “6-(6-membered heteroaryl and aryl)isoquinolin-3-yl carboxamides and preparation and use thereof” (Samumed, LLC, priority 2017, dated 2020):
Like-named read-outs stand apart in the source and are kept apart here.

Experiments:
[1] = tested on: Wnt activity (SW480 colon carcinoma cells stably expressing the Sp5-Luc reporter gene); experiment: Wnt activity screening assay (Sp5-Luc reporter gene assay); format: cell-based, human; conditions: Homo sapiens; for EC50: 36 to 48 hours
Summary of the method: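 SW480 colon carcinoma cells stably carrying a lentiviral luciferase reporter driven by an Sp5 promoter with eight TCF/LEF sites, plated at 4,000 cells/well in DMEM with 1% FBS. Compound exposure for 36–48 h at 37 °C, then luminescence read. Signals normalized to DMSO; EC50 from four-parameter nonlinear fit.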

[2] = molecular target: recombinant GSK3β kinase (Homo sapiens (Human), UniProt P49841); experiment: GSK3β kinase assay (Ser/Thr 09 peptide Z-lyte, FRET); format: biochemical;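 note: FRET read-out as coumarin over fluorescein emission ratio, compounds incubated one hour at room temperature, IC50 from dose-response curve fit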
Procedure: Each compound is dissolved in DMSO as a 10 mM stock and used to prepare compound source plates. Serial dilution (1:3, 11-point dose-response curves from 10 M to 0.0003 M) and compound transfer was performed using the ECHO 550 (Labcyte, Sunnyvale, Calif.) into 1536-well black-walled round bottom plates (Corning).
This is a non-radioactive assay using fluorescence resonance energy transfer (FRET) between coumarin and fluorescein to detect kinase activity which is represented as ratio of coumarin emission/fluorescein emission.
The mixture is allowed to incubate with the representative compounds for one hour at room temperature. All reactions were performed in duplicate. Unphosphorylated (“0% Control”) and phosphorylated (“100% control”) forms of Ser/Thr 18 serve as control reactions.
After incubation, diluted Development Buffer is added to the reaction and allowed to further incubate for one hour at room temperature.
Dose-response curves are generated and inhibitory concentration (IC50) values are calculated using non-linear regression curve fit in the Dotmatics' Studies Software (Bishops Stortford, UK).

[3] = tested on: SW480 colon carcinoma cells; experiment: Cell viability assay (CellTiter-Glo); format: cell-based, human; conditions: Homo sapiens, 96 h, four days, CellTiter-Glo
[4] = tested on: LL29 cells (primary human fibroblasts derived from IPF patients), α-smooth muscle actin; experiment: Inhibition of fibrotic process: TGF-β1-treated primary human fibroblasts, αSMA staining; format: cell-based; conditions: Homo sapiens, Fibroblast; for EC50: 96 h, TGF-β1 20 ng/mL, 4 days, % cells positive for αSMA; for inhibition at 10 µM: read-out: percent inhibition at 10 μM (given for EC50 >10 μM), TGF-β1, αSMA, 10 μM;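 for all read-outs here: controls were TGF-β1-stimulated wells with DMSO vehicle as the positive reference and cells given DMSO alone as the negative reference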
Procedure: Representative compounds were screened using primary human fibroblasts (derived from IPF patients) treated with TGF-β1 to determine their ability to inhibit the fibrotic process.
Human Fibroblast Cell Culture:
Each compound was dissolved in DMSO as a 10 mM stock and used to prepare compound source plates. […] LL29 cells were plated at 1,500 cells/well in 70 μL/well F12 medium supplemented with 1% Fetal Bovine Serum. […] Wells treated with TGF-β1 and containing DMSO were used as positive control, and cells with only DMSO were negative control. Cells were incubated at 37° C. and 5% CO2 for 4 days. Following incubation for 4 days, SYTOX green nucleic acid stain (Life Technologies [Thermo Fisher Scientific]) was added to the wells at a final concentration of 1 μM and incubated at room temperature for 30 min. Cells were then fixed using 4% formaldehyde (Electron Microscopy Sciences), washed 3 times with PBS followed by blocking and permeabilization using 3% Bovine Serum Albumin (BSA; Sigma) and 0.3% Triton X-100 (Sigma) in PBS.

[5] = tested on: IL-6 in human peripheral blood mononuclear cells (huPBMCs); experiment: IL-6 inhibition in LPS-stimulated human peripheral blood mononuclear cells (HTRF); format: cell-based; conditions: Homo sapiens, PBMC; for EC50: LPS 50 ng/mL, 22 hours, IL-6 HTRF; for inhibition at 10 µM: read-out: percent inhibition at 10 μM (given for EC50 >10 μM), LPS, IL-6, 10 μM
Summary of the method: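 Fresh normal human PBMCs at 1×10e6 cells/mL in RPMI with 1% FBS received compound, then 50 ng/mL E. coli 0111:B4 LPS 2 h later, and were incubated a further 22 h at 37° C. IL-6 read by HTRF (665/620 nm ratio), normalized to DMSO; EC50 from 4-parameter fit.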

[6] = molecular target: recombinant DYRK1A kinase (Homo sapiens (Human), UniProt Q13627); experiment: DYRK1A kinase assay (Ser/Thr 18 peptide Z-lyte, FRET)
[7] = GSK3β kinase, head says EC50, method says IC50, ATP 46 μM
[8] = DYRK1A kinase, head says EC50, method says IC50, ATP 30 μM

Sequence of recombinant GSK3β kinase (P49841 whole entry): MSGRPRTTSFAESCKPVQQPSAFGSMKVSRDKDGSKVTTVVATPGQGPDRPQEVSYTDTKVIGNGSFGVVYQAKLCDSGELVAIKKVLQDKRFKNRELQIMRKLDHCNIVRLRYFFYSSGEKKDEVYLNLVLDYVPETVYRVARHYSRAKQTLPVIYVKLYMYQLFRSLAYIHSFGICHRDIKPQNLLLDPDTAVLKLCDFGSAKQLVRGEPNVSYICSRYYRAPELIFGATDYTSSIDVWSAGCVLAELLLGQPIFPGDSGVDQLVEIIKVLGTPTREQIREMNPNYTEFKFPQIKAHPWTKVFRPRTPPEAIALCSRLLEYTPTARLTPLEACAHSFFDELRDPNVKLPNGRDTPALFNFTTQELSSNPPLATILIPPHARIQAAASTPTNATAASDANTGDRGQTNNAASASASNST

SMILES | EC50 [1] | EC50 [2, 7] | EC50 [3] | EC50 [5] | EC50 [6, 8] | EC50 [2] | EC50 [6] | EC50 [4] | inhibition at 10 µM [4] | inhibition at 10 µM ([1]; read-out: percent inhibition at 10 μM (given for EC50 >10 μM), 10 μM) | inhibition at 10 µM [5]
O=C(Nc1cc2cc(-c3cncc(NCC4(F)CNC4)n3)ccc2cn1)C1CC1 [Compound 103, N-(6-(6-(((3-Fluoroazetidin-3-yl)methyl)amino)pyrazin-2-yl)isoquinolin-3-yl)cyclopropanecarboxamide] | 119 nM | 3 nM | 253 nM | 146 nM | 1 nM |  |  | 547 nM |  |  | 
O=C(Nc1cc2cc(-c3cncc(NC4CCNCC4)n3)ccc2cn1)C1CCC1 [Compound 105, N-(6-(6-(Piperidin-4-ylamino)pyrazin-2-yl)isoquinolin-3-yl) cyclobutanecarboxamide] | 261 nM |  | 312 nM | 207 nM |  | 56 nM | 1 nM | 226 nM |  |  | 
O=C(Nc1cc2cc(-c3cncc(NC4CCNCC4)n3)ccc2cn1)C1CC(F)(F)C1 [Compound 106, 3,3-Difluoro-N-(6-(6-(piperidin-4-ylamino)pyrazin-2-yl)isoquinolin-3-yl) cyclobutane-1-carboxamide] | 381 nM | 50 nM | 8420 nM | 369 nM | 1 nM |  |  | 27 nM |  |  | 
O=C(Nc1cc2cc(-c3cncc(NC4CCNCC4)n3)ccc2cn1)C1CCCC1 [Compound 107, N-(6-(6-(Piperidin-4-ylamino)pyrazin-2-yl)isoquinolin-3-yl) cyclopentanecarboxamide] | 266 nM | 31 nM | 5910 nM | 119 nM | 1 nM |  |  | 1270 nM |  |  | 
O=C(Nc1cc2cc(-c3cncc(N[C@H]4CCNC[C@@H]4F)n3)ccc2cn1)c1ccc(F)cc1 [Compound 112, 4-Fluoro-N-(6-(6-(((3S,4S)-3-fluoropiperidin-4-yl)amino)pyrazin-2-yl)isoquinolin-3-yl)benzamide] | 9 nM | 1830 nM | 7 nM | 1060 nM | 8 nM |  |  | 975 nM |  |  | 
CC(C)N1CCC(Nc2cncc(-c3ccc4cnc(NC(=O)C5CC5)cc4c3)n2)CC1 [Compound 116, N-(6-(6-((1-Isopropylpiperidin-4-yl)amino)pyrazin-2-yl)isoquinolin-3-yl) cyclopropanecarboxamide] | 198 nM | 58 nM | 485 nM | 358 nM | 1 nM |  |  | 105 nM |  |  | 
CC(C)N1CCC(Nc2cncc(-c3ccc4cnc(NC(=O)C5CC(F)(F)C5)cc4c3)n2)CC1 [Compound 117, 3,3-Difluoro-N-(6-(6-((1-isopropylpiperidin-4-yl)amino)pyrazin-2-yl)isoquinolin-3-yl)cyclobutane-1-carboxamide] | 1470 nM | 128 nM | 1960 nM | 1360 nM | 2 nM |  |  | 170 nM |  |  | 
CC(C)N1CCC(Nc2cncc(-c3ccc4cnc(NC(=O)c5ccc(F)cc5)cc4c3)n2)CC1 [Compound 119, 4-Fluoro-N-(6-(6-((1-isopropylpiperidin-4-yl)amino)pyrazin-2-yl)isoquinolin-3-yl)benzamide] | > 10000 nM | > 10000 nM | 9020 nM | > 10000 nM | 2 nM |  |  | > 10000 nM | 7.7% | 23.7% | 6.1%
NC1CN(c2cncc(-c3ccc4cnc(NC(=O)c5ccc(F)cc5)cc4c3)n2)C1 [Compound 122, N-(6-(6-(3-aminoazetidin-1-yl)pyrazin-2-yl)isoquinolin-3-yl)-4-fluorobenzamide] | 6180 nM | > 10000 nM | 8900 nM | 3150 nM | 11 nM |  |  | > 10000 nM | 4.8% |  | 

More lines, in order of falling EC50 [1], values ahead:

EC50 [1] | EC50 [2, 7] | EC50 [3] | EC50 [5] | EC50 [6, 8] | EC50 [2] | EC50 [6] | SMILES | EC50 [4] | inhibition at 10 µM [4] | inhibition at 10 µM ([1]; read-out: percent inhibition at 10 μM (given for EC50 >10 μM), 10 μM) | inhibition at 10 µM [5]
3570 nM | > 10000 nM | 8330 nM | > 10000 nM | 13 nM |  |  | CN1CCN(c2cc(C(=O)Nc3cc4cc(-c5cncc(N6CCCC6)n5)ccc4cn3)ccn2)CC1 [Compound 123, 2-(4-Methylpiperazin-1-yl)-N-(6-(6-(pyrrolidin-1-yl)pyrazin-2-yl)isoquinolin-3-yl)isonicotinamide] | 1040 nM |  |  | 20.9%
2770 nM | > 10000 nM | 3320 nM | 8890 nM | 7 nM |  |  | CN1CCN(c2cc(C(=O)Nc3cc4cc(-c5cncc(N(C)C)n5)ccc4cn3)ccn2)CC1 [Compound 120, N-(6-(6-(Dimethylamino)pyrazin-2-yl)isoquinolin-3-yl)-2-(4-methylpiperazin-1-yl)isonicotinamide] | 620 nM |  |  | 
1040 nM | > 10000 nM | 2910 nM | 1910 nM | 6 nM |  |  | CCN(CC)c1cncc(-c2ccc3cnc(NC(=O)c4ccnc(N5CCN(C)CC5)c4)cc3c2)n1 [Compound 121, N-(6-(6-(Diethylamino)pyrazin-2-yl)isoquinolin-3-yl)-2-(4-methylpiperazin-1-yl)isonicotinamide] | 710 nM |  |  | 
833 nM | 78 nM | 1190 nM | 932 nM | 1 nM |  |  | CC(C)N1CCC(Nc2cncc(-c3ccc4cnc(NC(=O)C5CCCC5)cc4c3)n2)CC1 [Compound 118, N-(6-(6-((1-Isopropylpiperidin-4-yl)amino)pyrazin-2-yl)isoquinolin-3-yl) cyclopentanecarboxamide] | 148 nM |  |  | 
457 nM | 92 nM | 1560 nM | 385 nM | 2 nM |  |  | O=C(Nc1cc2cc(-c3cncc(NC4CCNCC4)n3)ccc2cn1)C1CCC(F)(F)CC1 [Compound 108, 4,4-Difluoro-N-(6-(6-(piperidin-4-ylamino)pyrazin-2-yl)isoquinolin-3-yl) cyclohexane-1-carboxamide] | 3390 nM |  |  | 
438 nM | 48 nM | 474 nM | 334 nM | 1 nM |  |  | CN1CCC(Nc2cncc(-c3ccc4cnc(NC(=O)C5CCCC5)cc4c3)n2)CC1 [Compound 114, N-(6-(6-((1-Methylpiperidin-4-yl)amino)pyrazin-2-yl)isoquinolin-3-yl) cyclopentanecarboxamide] | 175 nM |  |  | 
247 nM | 67 nM | 283 nM | 383 nM | 1 nM |  |  | CN1CCC(Nc2cncc(-c3ccc4cnc(NC(=O)C5CCC5)cc4c3)n2)CC1 [Compound 113, N-(6-(6-((1-Methylpiperidin-4-yl)amino)pyrazin-2-yl)isoquinolin-3-yl) cyclobutanecarboxamide] | > 10000 nM | 27.3% |  | 
153 nM | > 10000 nM | 226 nM | 401 nM | 19 nM |  |  | CC(C)(C)Nc1cncc(-c2ccc3cnc(NC(=O)c4ccnc(N5CCOCC5)c4)cc3c2)n1 [Compound 102, N-(6-(6-(tert-Butylamino)pyrazin-2-yl)isoquinolin-3-yl)-2-morpholinoisonicotinamide] | 94 nM |  |  | 
116 nM | 4320 nM | 326 nM | 1180 nM | 2 nM |  |  | O=C(Nc1cc2cc(-c3cncc(NC4CCNCC4)n3)ccc2cn1)c1ccc(F)cc1 [Compound 110, 4-fluoro-N-(6-(6-(piperidin-4-ylamino)pyrazin-2-yl)isoquinolin-3-yl)benzamide] | 345 nM |  |  | 
63 nM | 4390 nM | 119 nM | 1170 nM | 1 nM |  |  | O=C(Nc1cc2cc(-c3cncc(NCC4(F)CNC4)n3)ccc2cn1)c1ccc(F)cc1 [Compound 104, 4-fluoro-N-(6-(6-(((3-Fluoroazetidin-3-yl)methyl)amino)pyrazin-2-yl)isoquinolin-3-yl)benzamide] | 284 nM |  |  | 
39 nM |  | 5120 nM | 3190 nM |  | 8480 nM | 1 nM | CN1CCC(Nc2cncc(-c3ccc4cnc(NC(=O)c5ccc(F)cc5)cc4c3)n2)CC1 [Compound 115, 4-fluoro-N-(6-(6-((1-methylpiperidin-4-yl)amino)pyrazin-2-yl)isoquinolin-3-yl)benzamide] | > 10000 nM | 12.2% |  | 
9 nM |  | 18 nM | 106 nM |  | 4 nM | 1 nM | O=C(Nc1cc2cc(-c3cncc(N[C@H]4CCNC[C@@H]4F)n3)ccc2cn1)C1CC1 [Compound 111, N-(6-(6-(((3S,4S)-3-Fluoropiperidin-4-yl)amino)pyrazin-2-yl)isoquinolin-3-yl)cyclopropanecarboxamide] | 1520 nM |  |  | 
